How the values were obtained:
blackgrass = experiment: Test B pre/postemergence blackgrass; assay type: in vivo, Alopecurus myosuroides
Procedure, shortened: (§1)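 Herbicidal effect was estimated by eye on a ten-point control scale after plants spent twelve to sixteen days in a greenhouse following soil or foliar treatment. Foliar sprays targeted plants at one to four leaves; all doses were formulated in a non-phytotoxic solvent with surfactant.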

surinam grass = experiment: Test B pre/postemergence surinam grass; assay type: in vivo, Brachiaria decumbens
Procedure, shortened: as §1

cocklebur = experiment: Test B pre/postemergence cocklebur; assay type: in vivo, Xanthium strumarium
Procedure, shortened: as §1

corn = experiment: Test B pre/postemergence corn; assay type: in vivo, Zea mays
Procedure, shortened: as §1

crabgrass = experiment: Test B pre/postemergence crabgrass; assay type: in vivo, Digitaria sanguinalis
Procedure, shortened: as §1

giant foxtail = experiment: Test B pre/postemergence giant foxtail; assay type: in vivo, Setaria faberii
Procedure, shortened: as §1

morningglory = experiment: Test B pre/postemergence morningglory; assay type: in vivo, Ipomoea hederacea
Procedure, shortened: as §1

pigweed = experiment: Test B pre/postemergence pigweed; assay type: in vivo, Amaranthus retroflexus
Procedure, shortened: as §1

rape = experiment: Test B pre/postemergence rape; assay type: in vivo, Brassica napus
Procedure, shortened: as §1

soybean = experiment: Test B pre/postemergence soybean; assay type: in vivo, Glycine max
Procedure, shortened: as §1

sugar beet = experiment: Test B pre/postemergence sugar beet; assay type: in vivo, Beta vulgaris
Procedure, shortened: as §1

velvetleaf = experiment: Test B pre/postemergence velvetleaf; assay type: in vivo, Abutilon theophrasti
Procedure, shortened: as §1

wild oat = experiment: Test B pre/postemergence wild oat; assay type: in vivo, Avena fatua
Procedure, shortened: as §1

rice = experiment: Test B flood test rice; assay type: in vivo, Oryza sativa
Procedure, shortened: (§2)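 Plants were grown to the 2-leaf stage before treatment with test chemical, then held in a greenhouse for twelve to sixteen days. Injury was visually rated against untreated controls on a 0–10 scale, where 0 is no effect and 10 is complete control.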

duck salad = experiment: Test B flood test duck salad; assay type: in vivo, Heteranthera limosa
Procedure, shortened: as §2

bamyardgrass = experiment: Test B flood test barnyardgrass; assay type: in vivo, Echinochloa crus-galli
Procedure, shortened: as §2

[1] = Preemergence, Rate 62 g/ha, scale of 0 to 10 where 0 is no effect and 10 is complete control
[2] = Preemergence, Rate 250 g/ha, scale of 0 to 10 where 0 is no effect and 10 is complete control
[3] = Preemergence, Rate 500 g/ha, scale of 0 to 10 where 0 is no effect and 10 is complete control
[4] = Rate 62 g/ha, Postemergence, scale 0 to 10 (0 no effect, 10 complete control)
[5] = Rate 125 g/ha, Postemergence, scale of 0 to 10 where 0 is no effect and 10 is complete control
[6] = Rate 250 g/ha, Postemergence, scale of 0 to 10 where 0 is no effect and 10 is complete control
[7] = Rate 500 g/ha, Postemergence, scale 0 to 10, 0 no effect, 10 complete control
[8] = Rate 62 g/ha, headed Pre-emergence (flood test species), scale 0 to 10 (0 no effect, 10 complete control)
[9] = Rate 125 g/ha, Pre-emergence, flood test species, scale 0 to 10 where 0 is no effect and 10 is complete control
[10] = Rate 250 g/ha, Pre-emergence, flood-test species, scale 0 to 10, 0 is no effect, 10 is complete control
[11] = Rate 500 g/ha, Pre-emergence, flood test species, scale 0 to 10 (0 no effect, 10 complete control)

Cc1ccccc1-n1c(=O)on(C(=O)N(c2ccc(OC(F)(F)F)cc2)C(C)C)c1=O [Compound 300]
3: Wild oats plant response rating (wild oat; [3])
1: Soybean plant response rating (soybean; [4])
2: B. signalgrass plant response rating (surinam grass; [3]) | Crabgrass plant response rating (0 to 10 scale) (crabgrass; Preemergence, Rate 125 g/ha) | Soybean plant response rating (soybean; [5]) | Plant response rating, Soybean (soybean; [6])
9: Giant foxtail plant response rating (giant foxtail; [2])
5: Giant foxtail plant response rating (0 to 10 scale) (giant foxtail; Preemergence, Rate 125 g/ha)
7: Crabgrass plant response rating (crabgrass; [3])
4: Crabgrass plant response rating (crabgrass; [2])
10: Giant foxtail plant response rating (giant foxtail; [3])
0: Blackgrass plant response rating (blackgrass; [1]) | Blackgrass plant response rating (0 to 10 scale) (blackgrass; Preemergence, Rate 125 g/ha) | Blackgrass plant response rating (blackgrass; [2]) | Blackgrass plant response rating (blackgrass; [3]) | Blackgrass plant response rating (blackgrass; [4]) | Blackgrass plant response rating (blackgrass; [5]) | Plant response rating, Blackgrass (blackgrass; [6]) | Blackgrass plant response rating (blackgrass; [7]) | B. signalgrass plant response rating (surinam grass; [1]) | B. signalgrass plant response rating (0 to 10 scale, 0 is no effect, 10 is complete control) (surinam grass; Preemergence, Rate 125 g/ha) | B. signalgrass plant response rating (surinam grass; [2]) | B. signalgrass plant response rating (surinam grass; [4]) | B. signalgrass plant response rating (surinam grass; [5]) | Plant response rating, B. signalgrass (surinam grass; [6]) | B. signalgrass plant response rating (surinam grass; [7]) | Cocklebur plant response rating (cocklebur; [1]) | Cocklebur plant response rating (0 to 10 scale) (cocklebur; Preemergence, Rate 125 g/ha) | Cocklebur plant response rating (cocklebur; [2]) | Cocklebur plant response rating (cocklebur; [4]) | Cocklebur plant response rating (cocklebur; [5]) | Plant response rating, Cocklebur (cocklebur; [6]) | Cocklebur plant response rating (cocklebur; [7]) | Corn plant response rating (corn; [1]) | Corn plant response rating (0 to 10 scale) (corn; Preemergence, Rate 125 g/ha) | Corn plant response rating (corn; [2]) | Corn plant response rating (corn; [3]) | Corn plant response rating (corn; [4]) | Corn plant response rating (corn; [5]) | Plant response rating, Corn (corn; [6]) | Corn plant response rating (corn; [7]) | Crabgrass plant response rating (crabgrass; [1]) | Crabgrass plant response rating (crabgrass; [4]) | Crabgrass plant response rating (crabgrass; [5]) | Plant response rating, Crabgrass (crabgrass; [6]) | Giant foxtail plant response rating (giant foxtail; [1]) | Giant foxtail plant response rating (giant foxtail; [4]) | Giant foxtail plant response rating (giant foxtail; [5]) | Plant response rating, Giant foxtail (giant foxtail; [6]) | Morningglory plant response rating (morningglory; [1]) | Morningglory plant response rating (0 to 10 scale) (morningglory; Preemergence, Rate 125 g/ha) | Morningglory plant response rating (morningglory; [2]) | Morningglory plant response rating (morningglory; [3]) | Morningglory plant response rating (morningglory; [4]) | Morningglory plant response rating (morningglory; [5]) | Plant response rating, Morningglory (morningglory; [6]) | Redroot pigweed plant response rating (pigweed; [1]) | Redroot pigweed plant response rating (0 to 10 scale) (pigweed; Preemergence, Rate 125 g/ha) | Redroot pigweed plant response rating (pigweed; [2]) | Redroot pigweed plant response rating (pigweed; [3]) | Redroot pigweed plant response rating (pigweed; [4]) | Redroot pigweed plant response rating (pigweed; [5]) | Plant response rating, Redroot pigweed (pigweed; [6]) | Rape plant response rating (rape; [1]) | Rape plant response rating (0 to 10 scale) (rape; Preemergence, Rate 125 g/ha) | Rape plant response rating (rape; [2]) | Rape plant response rating (rape; [3]) | Rape plant response rating (rape; [4]) | Rape plant response rating (rape; [5]) | Plant response rating, Rape (rape; [6]) | Soybean plant response rating (soybean; [1]) | Soybean plant response rating (0 to 10 scale) (soybean; Preemergence, Rate 125 g/ha) | Soybean plant response rating (soybean; [2]) | Soybean plant response rating (soybean; [3]) | Sugarbeets plant response rating (sugar beet; [1]) | Sugarbeets plant response rating (0 to 10 scale) (sugar beet; Preemergence, Rate 125 g/ha) | Sugarbeets plant response rating (sugar beet; [2]) | Sugarbeets plant response rating (sugar beet; [3]) | Sugarbeets plant response rating (sugar beet; [4]) | Sugarbeets plant response rating (sugar beet; [5]) | Plant response rating, Sugarbeets (sugar beet; [6]) | Velvetleaf plant response rating (velvetleaf; [1]) | Velvetleaf plant response rating (0 to 10 scale) (velvetleaf; Preemergence, Rate 125 g/ha) | Velvetleaf plant response rating (velvetleaf; [2]) | Velvetleaf plant response rating (velvetleaf; [3]) | Velvetleaf plant response rating (velvetleaf; [4]) | Velvetleaf plant response rating (velvetleaf; [5]) | Plant response rating, Velvetleaf (velvetleaf; [6]) | Wild oats plant response rating (wild oat; [1]) | Wild oats plant response rating (0 to 10 scale) (wild oat; Preemergence, Rate 125 g/ha) | Wild oats plant response rating (wild oat; [2]) | Wild oats plant response rating (wild oat; [4]) | Wild oats plant response rating (wild oat; [5]) | Plant response rating, Wild oats (wild oat; [6]) | Rice plant response rating (rice; [8]) | Rice plant response rating (rice; [9]) | Rice plant response rating (rice; [10]) | Rice plant response rating (rice; [11]) | Ducksalad plant response rating (duck salad; [8]) | Ducksalad plant response rating (duck salad; [9]) | Ducksalad plant response rating (duck salad; [10]) | Ducksalad plant response rating (duck salad; [11]) | Barnyardgrass plant response rating (bamyardgrass; [8]) | Barnyardgrass plant response rating (bamyardgrass; [9]) | Barnyardgrass plant response rating (bamyardgrass; [10]) | Barnyardgrass plant response rating (bamyardgrass; [11])

Source: US6737383B1, “Herbicidal oxadiazolidines” (priority 1999, dated 2004)
